Source: US20260327195A1, “2-STYRYLBENZOTHIAZOLE DERIVATIVES AS ALPHA-SYNUCLEIN BINDING COMPOUNDS” (Eberhard Karls Universität Tübingen Medizinische Fakultät, priority 2023, published 2026)

How the values were obtained:
Aβ fibrils = settings: result in words; cited from earlier work
αSYN = settings: result in words; cited from earlier work
[1] = biological target: T1, Aβ plaques in AD human brain slices (Homo sapiens, UniProt P05067); assay: In vitro autoradiography on AD human brain slices (frontal cortex); type: binding
T1 construct: mainly Abeta40/42 cut from APP) in post-mortem AD frontal cortex slices
Protocol: (§1) Post-mortem human brain slices (10 μm thickness) were obtained from and the subject cases were analyzed by the Neurobiobank München (NBM, Munich, Germany), where tissues were collected on the basis of written informed consent according to the guidelines of the ethics committee of the Ludwig-Maximilians-University Munich, Germany (#345-13). The use of brain tissue samples in this study was approved by the ethics committee of the Faculty of Medicine at the University of Tuebingen (Ethics approval number: 813/2018BO2). Table 1 summarizes the information of the subjects from which samples were obtained and used in the experiment.
(§2) For autoradiography, brain slices were thawed for one hour before pre-incubation in BSA buffer for 25 minutes at room temperature. To determine total binding (TB), brain slices were incubated with the tracer (10 nM [^18F]PFSB, 10 nM [^18F]MFSB). Incubation of consecutive slices with the correspondent non-radioactive compounds (10 μM PFSB, […]) was performed to determine non-specific binding (NSB). The non-radioactive compounds were prepared by dissolving in DMSO to 10 mM, which yielded DMSO concentration of ≤0.1% in the final solution. Incubation was carried out for one hour at room temperature with subsequent washing in cold BSA buffer (three times for ten minutes) followed by three dipping in cold deionized water. After drying under UV lamps, brain slices were exposed to a storage phosphor screen (Molecular Dynamics, Caesarea, Israel) for 18 hours, which was then scanned in a phosphor imager (STORM 840, Molecular dynamics, Sunnyvale, CA, USA).
(§3) Quantitative data analysis was performed by drawing four regions of interest (ROIs) in relevant areas of the slice and one ROI next to it for background subtraction (ImageJ 1.8.0_172, National Institute of Health, Bethesda, Maryland, USA) (Schneider, C. A. et al., NIH Image to ImageJ: 25 years of image analysis; Nat Methods 2012, 9 (7), 671-5). Specific binding (SB) is obtained by subtracting NSB from TB. The SB disease/SB control ratio was calculated by dividing by the SB in diseased tissues with the respective SB in control tissues.

[2] = biological target: αSYN pathology in MSA human brain slices (Homo sapiens, UniProt P37840); assay: In vitro autoradiography on MSA human brain slices (cerebellum); type: binding
Protocol: as §1, §2, §3

[3] = biological target: αSYN pathology in PD human brain slices (Homo sapiens, UniProt P37840); assay: In vitro autoradiography on PD human brain slices (frontal cortex); type: binding; settings: 10 nM tracer; NSB with 10 μM non-radioactive compound
Protocol: as §1
For autoradiography, brain slices were thawed for one hour before pre-incubation in BSA buffer for 25 minutes at room temperature. To determine total binding (TB), brain slices were incubated with the tracer (10 nM [^18F]PFSB, 10 nM [^18F]MFSB). […]
as §3, with “Specific binding (SB) is obtained by subtracting NSB from TB.” left out

[4] = In vivo dynamic PET/MR imaging, pharmacokinetic profile; set-up: species or system mouse (wild-type female C57BL/6J); settings: i.v.
Protocol: The animal experiments were performed in compliance to the European directives on the protection and use of laboratory animals (Council Directive 2010/63/UE) and the German animal welfare act with approval from the local authorities (Regierungspräsidium Tuebingen, R3/19G). Three healthy wild-type female C57BL/6J mice (20.3±0.9 g; 9 weeks old) purchased from Charles River Laboratories (Sulzbach, Germany) were maintained in a vivarium on a 12:12 hour light dark cycle and were kept at a temperature of 22° C. with 40-60% humidity and free access to a standard diet and tap water.
The mice (n=3) were anaesthetized with 1.5% isoflurane evaporated in 100% oxygen at a flow rate of 0.8 L/min. Body temperature of 37° C. was maintained using a feedback temperature control unit. PET imaging studies were performed on Inveon dedicated microPET system (Inveon D-PET, Siemens, Knoxville, TN, USA). Five seconds after the start of PET acquisition, mice were injected intravenously with 9.9±0.6 MBq of [^18F]MFSB (Am=46.2±2.5 GBq/μmol at time of injection). The one-hour dynamic acquisitions were divided into 39 time frames (12×5 s, 6×10 s, 6×30 s, 5×60 s and 10×300 s). A 13-minute transmission measurement with a cobalt-57 point source was performed for attenuation correction. Subsequently, an anatomical magnetic resonance (MR) scan with a 7 Tesla MR scanner (ClinScan, Bruker BioSpin MRI GmbH, Ettlingen, Germany) using a rat whole-body volume coil and the Paravision software (v6.0.1, Bruker, Ettlingen, Germany) using a T2-weighted Turbo-RARE MRI sequence.
The PET image was reconstructed via the OSEM3D/SP-MAP reconstruction algorithm and coregistered to the whole-body MRI scan. Volumes of interest (VOIs) were hand-drawn for the relevant organs based on the MR anatomy in PMOD (PMOD Technologies, Faellanden, Switzerland, Version 4.2) and VOIs at different regions in the mouse brain were extracted using the atlas provided by PMOD to calculate the respective time-activity curves (TACs). Standardized uptake values (SUVs) were calculated as a ratio of the detected activity with injected activity and weight (SUV=(TAC (kBq/cc)/inj. activity (kBq))*weight (g)).

[5] = 10 nM tracer, NSB with 10 μM non-radioactive compound

T1 sequence (P05067 672-713 limits assumed): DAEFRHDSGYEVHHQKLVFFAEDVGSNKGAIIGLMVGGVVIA

SMILES | binding to Aβ fibrils (Aβ fibrils) | binding to αSYN (αSYN) | SB disease/SB control, AD/frontal cortex ctrl [1, 5] | binding in AD brain regions with Aβ plaques / AD/frontal cortex SB ratio in words ([1]; result in words, FIG. 12) | SB disease/SB control, MSA2/cerebellum ctrl [2, 5] | selectivity towards αSYN over Aβ ([2]; autoradiography, result in words, FIG. 12) | non-specific binding on MSA sections ([2]; result in words, hampered quantification of the disease/control SB ratio) | SB disease/SB control, PD/frontal cortex ctrl [3] | crossing of the BBB ([4]; 9.9±0.6 MBq, 60 min dynamic PET/MR) | clearance from lungs and liver ([4]; after first 2 min, result in words) | uptake in liver (SUV) ([4]; first 2 min) | uptake in lungs (SUV) ([4]; first 2 min) | clearance (brain), over 60 min ([4]; result in words) | kidney uptake ([4]; result in words) | renal excretion, start ([4]; result in words)
Cc1ccc2c(c1)sc(-c1ccc(N(C)C)cc1)[n+]2C [thioflavin T] | known to bind to Aβ fibrils | does not bind to αSYN |  |  |  |  |  |  |  |  |  |  |  |  | 
[18F]c1ccc2nc(/C=C/c3ccc(N4CCOCC4)cc3)sc2c1 [[^18F]MFSB] |  |  | 1.03 | remained favorable | 1.27 | validated the selective binding to αSYN | with [^18F]MFSB was hampered by high NSB. | 1.18 | crossing of the BBB was successful | fast to moderate clearance | ≈ 5 SUV | ≈ 5 SUV | beginning of clearance was observed | Significant kidney uptake | renal excretion starting in the first few minutes
